*1 amine or outer side, *2 acyl side, *3 side chain or, on linkers, in order; H or OH if unused. Where a SMILES comes first, the peptide text is derived from it. Bridges are numbered along the chain shown (N, C = ends). [ ]: non-standard residue; d: D form. The star is where a group is joined. hPhe(3,5-F2-4-CF3) = N[C@@H](CCc1cc(F)c(C(F)(F)F)c(F)c1)C(=O)O; hPhe(3-Cl-4-CF3) = N[C@@H](CCc1ccc(C(F)(F)F)c(Cl)c1)C(=O)O; NPrPhe(4-CF3) = CCCN[C@@H](Cc1ccc(C(F)(F)F)cc1)C(=O)O; NEtAsp = CCN([C@@H](CC(=O)[*:3])C(=O)[*:2])[*:1]; NMeGly(cPent) = CN[C@H](C(=O)O)C1CCCC1; Ac4c(3,3-Me2) = CC1(C)CC(N)(C(=O)O)C1; αMeCha = C[C@](N)(CC1CCCCC1)C(=O)O; NMeD = CN[C@@H](CC(=O)O)C(=O)O; NMeL = CN[C@@H](CC(C)C)C(=O)O; Morpholide = C1CN(*)CCO1; Ac5c = NC1(C(=O)O)CCCC1; Ac4c = NC1(C(=O)O)CCC1; NEtG = CCNCC(=O)O; Sar = CNCC(=O)O
What was measured:
[1] = target: GDP-bound NRAS wild-type protein (Homo sapiens, UniProt P01111); experiment: Binding to NRAS by surface plasmon resonance (SPR), Single Cycle Kinetics; conditions: for NRAS/KRAS (ratio of KD value with respect to NRAS to KD value with respect to KRAS) / NRAS/KRAS (ratio of KD value for NRAS to KD value for KRAS): GDP-bound NRAS wild-type vs GDP-bound KRAS wild-type
Chain of GDP-bound NRAS wild-type protein (P01111 whole entry): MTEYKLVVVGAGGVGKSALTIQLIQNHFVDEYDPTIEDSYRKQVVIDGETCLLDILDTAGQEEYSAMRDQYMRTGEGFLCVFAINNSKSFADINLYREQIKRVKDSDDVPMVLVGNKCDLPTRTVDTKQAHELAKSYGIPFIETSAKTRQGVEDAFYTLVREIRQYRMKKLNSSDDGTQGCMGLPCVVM

[2] = target: GDP-bound HRAS wild-type protein (Homo sapiens, UniProt P01112); experiment: Binding to HRAS by surface plasmon resonance (SPR), Single Cycle Kinetics; conditions: for HRAS/KRAS (ratio of KD value with respect to HRAS to KD value with respect to KRAS) / HRAS/KRAS (ratio of KD value for HRAS to KD value for KRAS): GDP-bound HRAS wild-type vs GDP-bound KRAS wild-type
Chain of GDP-bound HRAS wild-type protein (P01112 whole entry): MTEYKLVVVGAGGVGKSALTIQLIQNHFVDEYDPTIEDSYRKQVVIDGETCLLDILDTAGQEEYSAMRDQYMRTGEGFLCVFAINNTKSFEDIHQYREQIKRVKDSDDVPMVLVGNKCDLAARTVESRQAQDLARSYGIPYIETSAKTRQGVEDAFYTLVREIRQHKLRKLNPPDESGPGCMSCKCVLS

For `CCO[C@@H]1C[C@H]2C(=O)NC3(CCC3)C(=O)N(C)[C@@H](C3CCCC3)C(=O)N(C)[C@H](C(=O)N(C)C)CC(=O)N(C)[C@@H](CC3CCCC3)C(=O)N[C@@H]([C@@H](C)CC)C(=O)N(C)CC(=O)N(C)[C@H]3C/C=C\CCN(C3=O)[C@@H](Cc3ccc(C)cc3)C(=O)N(C)CC(=O)N[C@@H](CCc3ccc(C4CC4)c(Cl)c3)C(=O)N2C1` [PP2684], the “NRAS/KRAS (ratio of KD value with respect to GDP-bound NRAS wild-type protein to KD value with respect to KRAS)” value ([1]; KD ratio NRAS/KRAS, class symbols) was “A (a compound having 10 or more and less than 20 is denoted as A)” and the “HRAS/KRAS (ratio of KD value with respect to GDP-bound HRAS wild-type protein to KD value with respect to KRAS)” value ([2]; KD ratio HRAS/KRAS, class symbols) was “A (a compound having 10 or more and less than 20 is denoted as A)”.

For `CCCN1C(=O)CN(C)C(=O)CN(C)C(=O)[C@H]([C@@H](C)CC)NC(=O)[C@H](CC(C)C)N(C)C(=O)C[C@@H](C(=O)N(C)C)N(C)C(=O)[C@H](C2CCCC2)N(C)C(=O)[C@](C)(CC2CCCCC2)NC(=O)[C@@H]2CCCN2C(=O)[C@H](CCc2cc(F)c(C(F)(F)F)c(F)c2)NC(=O)CN(C)C(=O)[C@@H]1Cc1ccc(C(F)(F)F)cc1` [PP0739] ([NMeL]I[Sar][Sar][NPrPhe(4-CF3)][Sar][hPhe(3,5-F2-4-CF3)]P[αMeCha][NMeGly(cPent)][NMeD]-NMe2; lactam N-11), the “NRAS/KRAS (ratio of KD value with respect to GDP-bound NRAS wild-type protein to KD value with respect to KRAS)” value ([1]; KD ratio NRAS/KRAS, SPR) was “B (a compound having 3 or more and less than 10 is denoted as B)” and the “HRAS/KRAS (ratio of KD value with respect to GDP-bound HRAS wild-type protein to KD value with respect to KRAS)” value ([2]; KD ratio HRAS/KRAS, SPR) was “C (A compound having a KD ratio of 0.1 or more and less than 3 is denoted as C)”.

`CCC[C@H]1C(=O)N[C@@H]([C@@H](C)CC)C(=O)N2CCC[C@H]2C(=O)N(C)[C@H]2C/C=C\CCN(C2=O)[C@@H](Cc2ccc(C)cc2)C(=O)N(C)CC(=O)N[C@@H](CCc2ccc(C(F)(F)F)c(OC)c2)C(=O)N2C[C@@H](C)C[C@H]2C(=O)N(C)C2(CCC2)C(=O)N(C)[C@@H](C2CCCC2)C(=O)N(C)[C@H](C(=O)N(C)C)CC(=O)N1C` [PP2368] was tested, and the “NRAS/KRAS (ratio of KD value with respect to NRAS to KD value with respect to KRAS)” value ([1]; SPR) was “A (a compound having 10 or more and less than 20 is denoted as A)” and the “HRAS/KRAS (ratio of KD value with respect to HRAS to KD value with respect to KRAS)” value ([2]; SPR) was “A (a compound having 10 or more and less than 20 is denoted as A)”.

In the case of `CCO[C@@H]1CCN2C(=O)[C@H](CCc3cc(F)c(C(F)(F)F)c(F)c3)NC(=O)CN(C)C(=O)[C@H](Cc3ccc(C(F)(F)F)cc3)N3CCCC[C@@H](C3=O)N(C)C(=O)CN(C)C(=O)[C@H]([C@@H](C)CC)NC(=O)[C@H](CC(C)C)N(C)C(=O)C[C@@H](C(=O)N3CCOCC3)N(C)C(=O)[C@H](C3CCCC3)N(C)C(=O)C3(CCC3)NC(=O)[C@H]12` [PP1079], the “NRAS/KRAS (ratio of KD value with respect to NRAS to KD value with respect to KRAS)” value ([1]; KD ratio, SPR) is reported as “B (a compound having 3 or more and less than 10 is denoted as B)” and the “HRAS/KRAS (ratio of KD value with respect to HRAS to KD value with respect to KRAS)” value ([2]; KD ratio, SPR) is reported as “B (a compound having 3 or more and less than 10 is denoted as B)”.

With `CCCN1C(=O)CN(C)C(=O)CN(C)C(=O)[C@H]([C@@H](C)OC)NC(=O)[C@H](CC(C)C)N(C)C(=O)C[C@@H](C(=O)N2CCOCC2)N(C)C(=O)[C@H](C2CCCC2)N(C)C(=O)C2(CC(C)(C)C2)NC(=O)[C@@H]2CCCN2C(=O)[C@H](CCc2ccc(C(F)(F)F)c(Cl)c2)NC(=O)CN(C)C(=O)[C@@H]1Cc1ccc(C(F)(F)F)cc1` [PP1963] ([NMeL]T(Me)[Sar][Sar][NPrPhe(4-CF3)][Sar][hPhe(3-Cl-4-CF3)]P[Ac4c(3,3-Me2)][NMeGly(cPent)][NMeD]-Morpholide; lactam N-11) the “NRAS/KRAS (ratio of KD value for NRAS to KD value for KRAS)” value ([1]; KD ratio, SPR) was “B (a compound having 3 or more and less than 10 is denoted as B)” and the “HRAS/KRAS (ratio of KD value for HRAS to KD value for KRAS)” value ([2]; KD ratio, SPR) was “C (A compound having a KD ratio of 0.1 or more and less than 3 is denoted as C)”.

With `CCCN1C(=O)CN(C)C(=O)CNC(=O)[C@H]([C@@H](C)CC)NC(=O)[C@H](CC(C)C)N(C)C(=O)C[C@@H](C(=O)N2CCOCC2)N(CC)C(=O)[C@H](C2CCCC2)N(C)C(=O)C2(CCCC2)NC(=O)[C@@H]2CCCN2C(=O)[C@H](CCc2ccc(C(F)(F)F)c(Cl)c2)NC(=O)CN(C)C(=O)[C@@H]1Cc1ccc(C(F)(F)F)cc1` [PP1970] ([NMeL]IG[Sar][NPrPhe(4-CF3)][Sar][hPhe(3-Cl-4-CF3)]P[Ac5c][NMeGly(cPent)][NEtAsp]-Morpholide; lactam N-11) the “NRAS/KRAS (ratio of KD value for NRAS to KD value for KRAS)” value ([1]; KD ratio, SPR) was “B (a compound having 3 or more and less than 10 is denoted as B)” and the “HRAS/KRAS (ratio of KD value for HRAS to KD value for KRAS)” value ([2]; KD ratio, SPR) was “B (a compound having 3 or more and less than 10 is denoted as B)”.

`CCCN1C(=O)CN(C)C(=O)CN(CC)C(=O)[C@H]([C@@H](C)CC)NC(=O)[C@H](CC(C)C)N(C)C(=O)C[C@@H](C(=O)N(C)C)NC(=O)[C@H](C2CCCC2)N(C)C(=O)C2(CCC2)NC(=O)[C@@H]2CCCN2C(=O)[C@H](CCc2ccc(C(F)(F)F)c(Cl)c2)NC(=O)CN(C)C(=O)[C@@H]1Cc1ccc(C(F)(F)F)cc1` [PP0368] ([NMeL]I[NEtG][Sar][NPrPhe(4-CF3)][Sar][hPhe(3-Cl-4-CF3)]P[Ac4c][NMeGly(cPent)]D-NMe2; lactam N-11) was tested, and the “NRAS/KRAS (ratio of KD for GDP-bound NRAS wild-type to KD for KRAS)” value ([1]; KD ratio NRAS/KRAS, SPR) was “B (a compound having 3 or more and less than 10 is denoted as B)” and the “HRAS/KRAS (ratio of KD for GDP-bound HRAS wild-type to KD for KRAS)” value ([2]; KD ratio HRAS/KRAS, SPR) was “B (a compound having 3 or more and less than 10 is denoted as B)”.

Reference: patent US20250230193A1, “CYCLIC COMPOUND HAVING SELECTIVE KRAS INHIBITORY EFFECT ON HRAS AND NRAS” (CHUGAI SEIYAKU KABUSHIKI KAISHA, priority 2022, published 2025)
